Experimental data: ChEMBL document CHEMBL1134946, “Synthesis and NK(1)/NK(2) binding activities of a series of diacyl-substituted 2-arylpiperazines” (Bioorg Med Chem Lett, 2002)

Experiments:
Substance-P receptor [1] = molecular target: Substance-P receptor (Homo sapiens, UniProt P25103); experiment: Binding affinity in membrane preparations containing recombinant human Tachykinin receptor 1 in CHO cells by using [3H]-Sar SP as the radioligand.; format: cell membranes
Substance-K receptor [2] = molecular target: T1, Substance-K receptor (Homo sapiens, UniProt P21452); experiment: Binding affinity in membrane preparations containing recombinant human Tachykinin receptor 2 in CHO cells by using [3H]NKA as the radioligand.; format: cell membranes
T1 sequence (P21452 whole entry): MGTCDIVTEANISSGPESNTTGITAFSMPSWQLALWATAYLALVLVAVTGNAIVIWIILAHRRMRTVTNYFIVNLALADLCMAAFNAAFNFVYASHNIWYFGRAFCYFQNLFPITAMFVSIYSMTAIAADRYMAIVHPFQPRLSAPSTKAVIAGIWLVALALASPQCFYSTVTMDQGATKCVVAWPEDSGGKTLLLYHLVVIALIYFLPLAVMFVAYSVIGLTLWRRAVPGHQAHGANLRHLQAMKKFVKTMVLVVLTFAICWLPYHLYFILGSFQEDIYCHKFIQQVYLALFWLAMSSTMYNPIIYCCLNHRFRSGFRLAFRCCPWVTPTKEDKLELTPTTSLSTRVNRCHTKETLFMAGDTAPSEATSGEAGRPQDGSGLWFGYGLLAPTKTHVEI

Substance-K receptor [3] = molecular target: T2, Substance-K receptor (Mesocricetus auratus, UniProt P51144); experiment: Inhibition of NKA-induced airway contraction of isolated hamster trachea (ht) was used as a measure of NK2-receptor antagonist activity.; format: functional, tissue-based; settings: read-out: pA2 (converted)
T2 sequence (P51144 whole entry): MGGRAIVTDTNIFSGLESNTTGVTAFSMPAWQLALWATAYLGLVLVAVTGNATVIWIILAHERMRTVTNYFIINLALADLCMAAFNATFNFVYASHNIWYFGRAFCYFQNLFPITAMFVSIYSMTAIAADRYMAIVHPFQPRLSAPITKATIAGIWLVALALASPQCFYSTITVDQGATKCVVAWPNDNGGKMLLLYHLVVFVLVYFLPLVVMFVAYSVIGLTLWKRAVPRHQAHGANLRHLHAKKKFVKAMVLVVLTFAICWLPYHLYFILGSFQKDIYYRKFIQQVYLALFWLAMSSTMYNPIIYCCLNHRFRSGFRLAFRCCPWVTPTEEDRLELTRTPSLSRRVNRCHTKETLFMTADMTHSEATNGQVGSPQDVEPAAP

Substance-P receptor [4] = molecular target: Substance-P receptor (Cavia porcellus, UniProt P30547); experiment: Inhibition of the SP-induced NK1-mediated enhancement of the EFS-induced sympathetic neurogenic contractions of gpvd, used as a measure of antagonist activity.; format: functional; settings: read-out: pA2 (converted)
Chain of Substance-P receptor (Cavia porcellus, UniProt P30547) (P30547 whole entry): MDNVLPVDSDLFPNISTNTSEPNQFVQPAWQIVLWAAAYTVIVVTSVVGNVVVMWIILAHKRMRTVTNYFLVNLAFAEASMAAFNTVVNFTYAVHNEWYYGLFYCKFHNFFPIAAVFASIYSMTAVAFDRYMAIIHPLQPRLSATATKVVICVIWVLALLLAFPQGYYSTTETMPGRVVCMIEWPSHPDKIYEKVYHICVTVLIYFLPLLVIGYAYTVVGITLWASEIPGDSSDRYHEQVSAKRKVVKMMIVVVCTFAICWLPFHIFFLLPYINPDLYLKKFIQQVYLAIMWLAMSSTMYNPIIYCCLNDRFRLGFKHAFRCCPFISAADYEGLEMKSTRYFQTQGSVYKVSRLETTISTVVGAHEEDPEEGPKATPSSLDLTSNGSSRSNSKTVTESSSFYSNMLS

Chain of Substance-P receptor (Homo sapiens, UniProt P25103) (P25103 whole entry): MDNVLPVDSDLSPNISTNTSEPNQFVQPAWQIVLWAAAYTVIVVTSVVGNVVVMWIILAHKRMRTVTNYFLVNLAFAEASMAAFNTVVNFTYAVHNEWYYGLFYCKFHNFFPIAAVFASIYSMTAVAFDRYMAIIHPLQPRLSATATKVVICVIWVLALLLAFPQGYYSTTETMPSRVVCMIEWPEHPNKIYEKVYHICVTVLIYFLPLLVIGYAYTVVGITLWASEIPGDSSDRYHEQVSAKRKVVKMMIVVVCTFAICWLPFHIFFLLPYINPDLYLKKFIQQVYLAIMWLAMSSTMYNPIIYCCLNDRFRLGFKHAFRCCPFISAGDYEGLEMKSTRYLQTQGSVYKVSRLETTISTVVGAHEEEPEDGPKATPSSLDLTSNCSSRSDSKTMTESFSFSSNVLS

Row | Structure (SMILES) | Ki (Substance-P receptor [1]) [nM] | Ki (Substance-K receptor [2]) [nM] | Kb (Substance-K receptor [3]) [nM] | Kb (Substance-P receptor [4]) [nM]
1 | COc1cc(CC(=O)N2CCN(C(=O)CNC3CCN(Cc4ccccc4)CC3)C(c3ccc(Cl)c(Cl)c3)C2)cc(OC)c1OC (centres undefined) | > 1000 | > 1000 |  | 
2 | Cc1cc(C)cc(C(=O)N2CCN(C(=O)CNC3CCNCC3)[C@H](c3ccc(Cl)c(Cl)c3)C2)c1 | 215 | 20 |  | 
3 | CN1CCN(C(=O)CNC2CCN(Cc3ccccc3)CC2)C(c2ccccc2)C1 (centres undefined) | 135 | > 1000 |  | 
4 | O=C(c1cc(Br)cc(Br)c1)N1CCN(C(=O)CNC2CCN(Cc3ccccc3)CC2)C(c2ccc(Cl)c(Cl)c2)C1 (centres undefined) | 3.2 | 14 |  | 
5 | O=C(Cc1cc(C(F)(F)F)cc(C(F)(F)F)c1)N1CCN(C(=O)CNC2CCN(Cc3ccccc3)CC2)C(c2ccccc2)C1 (centres undefined) | 136 | > 1000 |  | 
6 | O=C(c1cc(F)cc(F)c1)N1CCN(C(=O)CNC2CCN(Cc3ccccc3)CC2)C(c2ccc(Cl)c(Cl)c2)C1 (centres undefined) | 23 | 22 |  | 
7 | CC(=O)Nc1nc(CN2CCC(NCC(=O)N3CCN(C(=O)c4cc(C)cc(C)c4)C[C@H]3c3ccc(Cl)c(Cl)c3)CC2)cs1 | 52 | 0.9 |  | 
8 | Cc1cc(C)cc(C(=O)N2CCN(C(=O)CNC3CCN(Cc4ncc[nH]4)CC3)[C@H](c3ccc(Cl)c(Cl)c3)C2)c1 | 92 | 3 |  | 
9 | O=C(c1cc(Cl)cc(Cl)c1)N1CCN(C(=O)CNC2CCN(Cc3ccccc3)CC2)C(c2ccc(Cl)c(Cl)c2)C1 (centres undefined) | 7.7 | 14 |  | 
10 | O=C(CNC1CCN(Cc2ccccc2)CC1)N1CCN(Cc2cc(C(F)(F)F)cc(C(F)(F)F)c2)CC1c1ccc(Cl)c(Cl)c1 (centres undefined) | 30 | 175 |  | 
11 | O=C(CN1CCC(O)(c2ccccc2)CC1)N1CCN(Cc2cc(C(F)(F)F)cc(C(F)(F)F)c2)CC1c1ccccc1 (centres undefined) | 13 | > 1000 |  | 
12 | O=C(CN1CCC(Cc2ccccc2)CC1)N1CCN(Cc2cc(C(F)(F)F)cc(C(F)(F)F)c2)CC1c1ccc(Cl)c(Cl)c1 (centres undefined) | 110 | > 1000 |  | 
13 | CC(=O)NC1(c2ccccc2)CCN(CC(=O)N2CCN(Cc3cc(C(F)(F)F)cc(C(F)(F)F)c3)CC2c2ccccc2)CC1 (centres undefined) | 48 | > 1000 |  | 
14 | COc1cc(C(=O)N2CCN(C(=O)CNC3CCN(Cc4ccccc4)CC3)C(c3ccc(Cl)c(Cl)c3)C2)cc(OC)c1OC (centres undefined) | 112 | 124 |  | 
15 | COc1cc(OC)cc(C(=O)N2CCN(C(=O)CNC3CCN(Cc4ccccc4)CC3)C(c3ccc(Cl)c(Cl)c3)C2)c1 (centres undefined) | 7.1 | 27 |  | 
16 | O=C(CN1CCN(Cc2ccccc2)CC1)N1CCN(Cc2cc(C(F)(F)F)cc(C(F)(F)F)c2)CC1c1ccc(Cl)c(Cl)c1 (centres undefined) | 28 | > 1000 |  | 
17 | O=C(CN1CCN(Cc2ccccc2)CC1)N1CCN(Cc2cc(C(F)(F)F)cc(C(F)(F)F)c2)CC1c1ccccc1 (centres undefined) | 48 | > 1000 |  | 
18 | O=C(c1cc(O)cc(O)c1)N1CCN(C(=O)CNC2CCN(Cc3ccccc3)CC2)C(c2ccc(Cl)c(Cl)c2)C1 (centres undefined) | > 1000 | > 1000 |  | 
19 | O=C(CN1CCC(Cc2ccccc2)CC1)N1CCN(Cc2cc(C(F)(F)F)cc(C(F)(F)F)c2)CC1c1ccccc1 (centres undefined) | 37 | > 1000 |  | 
20 | O=C(c1cc(C(F)(F)F)cc(C(F)(F)F)c1)N1CCN(C(=O)CNC2CCN(Cc3ccccc3)CC2)C(c2ccc(Cl)c(Cl)c2)C1 (centres undefined) |  |  |  | 79.4
21 | O=C(CNC1CCN(Cc2ccccc2)CC1)N1CCN(Cc2cc(C(F)(F)F)cc(C(F)(F)F)c2)CC1c1ccccc1 (centres undefined) | 17 | 300 |  | 
22 | O=C(CN1CCC(O)(c2ccccc2)CC1)N1CCN(Cc2cc(C(F)(F)F)cc(C(F)(F)F)c2)CC1c1ccc(Cl)c(Cl)c1 (centres undefined) | 32 | > 1000 |  | 
23 | CC(=O)NC1(c2ccccc2)CCN(CC(=O)N2CCN(Cc3cc(C(F)(F)F)cc(C(F)(F)F)c3)CC2c2ccc(Cl)c(Cl)c2)CC1 (centres undefined) | 148 | > 1000 |  | 

Now from value to compound:

Row | Ki (Substance-P receptor [1]) [nM] | Ki (Substance-K receptor [2]) [nM] | Kb (Substance-K receptor [3]) [nM] | Kb (Substance-P receptor [4]) [nM] | Structure (SMILES)
24 | 42 | 1.1 |  |  | Cc1cc(C)cc(C(=O)N2CCN(C(=O)CNC3CCN(C(=O)[C@@H](N)c4ccccc4)CC3)[C@H](c3ccc(Cl)c(Cl)c3)C2)c1
25 | 21 | 3.2 |  |  | Cc1cc(C)cc(C(=O)N2CCN(C(=O)CNC3CCN(C(=O)[C@@H](N)Cc4ccccc4)CC3)[C@H](c3ccc(Cl)c(Cl)c3)C2)c1
26 | 35 | 1.3 |  |  | Cc1cc(C)cc(C(=O)N2CCN(C(=O)CNC3CCN(Cc4cc[nH]c4)CC3)[C@H](c3ccc(Cl)c(Cl)c3)C2)c1
27 | 143 | 16 |  |  | Cc1cc(C)cc(C(=O)N2CCN(C(=O)CNC3CCN(C(=O)[C@H](N)c4ccccc4)CC3)[C@H](c3ccc(Cl)c(Cl)c3)C2)c1
28 | 70 | 28 |  |  | Cc1cc(C)cc(C(=O)N2CCN(C(=O)CNC3CCN(C(=O)[C@H](N)Cc4c[nH]c5ccccc45)CC3)[C@H](c3ccc(Cl)c(Cl)c3)C2)c1
29 | 11 | 1.1 |  |  | Cc1cc(C)cc(C(=O)N2CCN(C(=O)CNC3CCN(C(=O)[C@H](N)Cc4ccccc4)CC3)[C@H](c3ccc(Cl)c(Cl)c3)C2)c1
30 | 15 | 1.3 |  |  | CC(=O)Nc1ccc(CN2CCC(NCC(=O)N3CCN(C(=O)c4cc(C)cc(C)c4)C[C@H]3c3ccc(Cl)c(Cl)c3)CC2)cc1
31 |  |  | 316 | 316 | Cc1cc(C)cc(C(=O)N2CCN(C(=O)CNC3CCN(Cc4ccccc4)CC3)C(c3ccc(Cl)c(Cl)c3)C2)c1 (centres undefined)
32 | 32 | 7 |  |  | Cc1cc(C)cc(C(=O)N2CCN(C(=O)CNC3CCN(C(=O)[C@H](N)Cc4ccc(O)cc4)CC3)[C@H](c3ccc(Cl)c(Cl)c3)C2)c1
33 |  |  |  | 6.31 | Cc1cc(C)cc(C(=O)N2CCN(C(=O)CNC3CCN(Cc4ccccc4)CC3)[C@@H](c3ccc(Cl)c(Cl)c3)C2)c1
